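96-well plates; 48 h exposure; 5 concentrations. Endpoints by linear interpolation between flanking doses. Not reached: highest tested concentration assigned. GI50 is the concentration that inhibits growth by half.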 Activity calls are given as the source filed them. Cut-off read from the data, not from the text of the source: active = GI50 up to about 1.1 µM and inactive = higher.
Tests used:
Test in all cases: NCI tumour cell line growth inhibition, 48 h
UO-31 = system: UO-31
UACC-257 = system: UACC-257
786-0 = system: 786-0
SNB-75 = system: SNB-75
OVCAR-8 = system: OVCAR-8
HOP-92 = system: HOP-92
A498 = system: A498
SK-MEL-28 = system: SK-MEL-28
COLO 205 = system: COLO 205
SF-539 = system: SF-539
HOP-62 = system: HOP-62
NCI-H460 = system: NCI-H460
SK-MEL-5 = system: SK-MEL-5
HCT-15 = system: HCT-15
NCI-H226 = system: NCI-H226
SF-295 = system: SF-295
ACHN = system: ACHN
LXFL 529 = system: LXFL 529
OVCAR-4 = system: OVCAR-4
HL-60 = system: HL-60

Measured: GI50

CCCN(CCC)CCc1cc(C(C)=O)n(S(=O)(=O)c2ccc(C)cc2)c1
> 100 µM: HCT-15
inactive: UO-31 83.2 µM | UACC-257 54.6 µM | 786-0 > 100 µM | SNB-75 > 100 µM | OVCAR-8 > 100 µM | HOP-92 > 100 µM | A498 > 100 µM | SK-MEL-28 > 100 µM | COLO 205 > 100 µM | SF-539 > 100 µM | HOP-62 > 100 µM | NCI-H460 > 100 µM | SK-MEL-5 41.4 µM | NCI-H226 > 100 µM | SF-295 > 100 µM | ACHN > 100 µM | LXFL 529 > 100 µM | OVCAR-4 > 100 µM

CCOP(=O)(OCC)C1CC(C)OC1=O (stereo not given)
> 100 µM: HCT-15
inactive: UO-31 > 100 µM | UACC-257 > 100 µM | 786-0 > 100 µM | SNB-75 > 100 µM | OVCAR-8 > 100 µM | A498 > 100 µM | SK-MEL-28 > 100 µM | HL-60 > 100 µM | COLO 205 > 100 µM | SF-539 > 100 µM | HOP-62 > 100 µM | NCI-H460 > 100 µM | SK-MEL-5 > 100 µM | SF-295 > 100 µM | ACHN > 100 µM | LXFL 529 > 100 µM | OVCAR-4 > 100 µM

CC1=NN(c2ccccc2)C(=O)C1=C1SCCCS1
31.9 µM: HCT-15
inactive: UO-31 34.2 µM | UACC-257 28.2 µM | 786-0 35.5 µM | SNB-75 > 100 µM | OVCAR-8 31.7 µM | HOP-92 25.5 µM | A498 45.7 µM | SK-MEL-28 48.6 µM | HL-60 19.5 µM | COLO 205 15.9 µM | HOP-62 42.1 µM | NCI-H460 35.2 µM | SK-MEL-5 31.2 µM | NCI-H226 29.3 µM | SF-295 27.2 µM | ACHN > 100 µM | LXFL 529 34.6 µM

N#C/C(=C/Sc1ccccc1)C(=O)O
21.9 µM: HCT-15
inactive: UO-31 12.6 µM | UACC-257 34.4 µM | 786-0 22.6 µM | SNB-75 19.2 µM | OVCAR-8 17 µM | HOP-92 57.7 µM | SK-MEL-28 24.5 µM | HL-60 34.4 µM | COLO 205 20.9 µM | SF-539 18.2 µM | HOP-62 43.9 µM | NCI-H460 25.7 µM | SK-MEL-5 29.6 µM | NCI-H226 23.3 µM | SF-295 37.3 µM | ACHN 27.6 µM | LXFL 529 21.2 µM | OVCAR-4 40.7 µM

CCOc1ccc2c(c1)[n+]([O-])c(-c1ccccc1)c(N)[n+]2[O-]
inactive: UO-31 96.4 µM | UACC-257 41.5 µM | 786-0 > 100 µM | SNB-75 > 100 µM | OVCAR-8 78.5 µM | A498 82.6 µM | SK-MEL-28 33.1 µM | HL-60 37 µM | COLO 205 30.5 µM | SF-539 51.3 µM | HOP-62 71.9 µM | NCI-H460 51.6 µM | SK-MEL-5 24.3 µM | NCI-H226 > 100 µM | SF-295 > 100 µM | ACHN 55.1 µM | LXFL 529 46.6 µM | OVCAR-4 > 100 µM
55.2 µM: HCT-15

O=S1(=O)NN=C(NCc2ccc(Cl)c(Cl)c2)c2ccccc21
inactive: UO-31 > 100 µM | UACC-257 > 100 µM | 786-0 > 100 µM | OVCAR-8 > 100 µM | HOP-92 50.1 µM | A498 > 100 µM | HL-60 26.5 µM | COLO 205 > 100 µM | SF-539 > 100 µM | NCI-H460 95.3 µM | SK-MEL-5 86.9 µM | NCI-H226 > 100 µM | SF-295 > 100 µM | ACHN > 100 µM | LXFL 529 42.2 µM | OVCAR-4 > 100 µM
36 µM: HCT-15

— ChEMBL document CHEMBL1201862, “PubChem BioAssay data set” (2004)
